Measurements published in patent publication US20240083861A1, “HSD17B13 INHIBITORS AND USES THEREOF” (FL2022-001, Inc., priority 2020, published 2024).

The compounds below were run against T1, Recombinant human HSD17B13 enzyme (Homo sapiens, UniProt Q7Z5P4) (assay: HSD17b13 NAD(P)H-Glo biochemical assay). Details: 50 uM estradiol, 1 mM NAD+, NAD(P)H-Glo luminescence; read-out: HSD17β13 IC50.
T1 sequence (Q7Z5P4 20-300): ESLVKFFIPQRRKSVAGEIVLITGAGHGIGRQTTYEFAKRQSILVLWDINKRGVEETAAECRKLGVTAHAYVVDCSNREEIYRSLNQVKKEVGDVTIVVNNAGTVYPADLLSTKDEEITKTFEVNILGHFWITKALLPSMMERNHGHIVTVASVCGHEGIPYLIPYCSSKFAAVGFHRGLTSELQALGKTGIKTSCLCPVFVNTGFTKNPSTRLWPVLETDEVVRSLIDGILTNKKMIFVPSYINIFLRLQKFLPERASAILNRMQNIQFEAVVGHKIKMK
Procedure, shortened: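 Recombinant human HSD17B13 in 20 mM Tris pH7.4 with 0.002% Tween-20 and 0.02% BSA was preincubated with inhibitor for 20 minutes at RT. The reaction ran 3 hours at 37° C with 50 uM estradiol and 1 mM NAD+ (final). NADH formed was detected by NAD(P)H-Glo luminescence after 1 hour at RT.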

IC50 | Structure (SMILES)
< 100 nM | Cn1nc(-c2cc(C(F)(F)F)c(F)c(O)c2F)c2cnc(N3CCC(NS(C)(=O)=O)CC3)nc21 [Compound 18.23, N-(1-(3-(2,4-Difluoro-3-hydroxy-5-(trifluoromethyl)phenyl)-1-methyl-1H-pyrazolo[3,4-d]pyrimidin-6-yl)piperidin-4-yl)methanesulfonamide]
100 to 1000 nM | Cn1nc(-c2cc(C(F)(F)F)c(F)c(O)c2F)c2cnc(N3CCC4(CCN4)CC3)nc21 [Compound 18.24, 2,6-Difluoro-3-(1-methyl-6-(1,7-diazaspiro[3.5]nonan-7-yl)-1H-pyrazolo[3,4-d]pyrimidin-3-y1)-5-(trifluoromethyl)phenol]
< 100 nM | Cn1nc(-c2cc(C(F)(F)F)c(F)c(O)c2F)c2cnc(N3CCC4(CC3)CNC4=O)nc21 [Compound 18.25, 7-(3-(2,4-Difluoro-3-hydroxy-5-(trifluoromethyl)phenyl)-1-methyl-1H-pyrazolo[3,4-d]pyrimidin-6-yl)-2,7-diazaspiro[3.5]nonan-1-one]
< 100 nM | Cn1nc(-c2cc(C(F)(F)F)c(F)c(O)c2F)c2cnc(N3CCC4(CCCC(=O)N4)CC3)nc21 [Compound 18.26, 9-(3-(2,4-Difluoro-3-hydroxy-5-(trifluoromethyl)phenyl)-1-methyl-1H-pyrazolo[3,4-d]pyrimidin-6-yl)-1,9-diazaspiro[5.5]undecan-2-one]
< 100 nM | CC(C)C(=O)NC1CCN(c2ncc3c(-c4cc(C(F)(F)F)c(F)c(O)c4F)nn(C)c3n2)CC1 [Compound 18.27, N-(1-(3-(2,4-Difluoro-3-hydroxy-5-(trifluoromethyl)phenyl)-1-methyl-1H-pyrazolo[3,4-d]pyrimidin-6-y1)piperidin-4-yl)isobutyramide]
< 100 nM | CC(=O)N(C)C1CCN(c2ncc3c(-c4cc(C(F)(F)F)c(F)c(O)c4F)nn(C)c3n2)CC1 [Compound 18.28, N-(1-(3-(2,4-Difluoro-3-hydroxy-5-(trifluoromethyl)phenyl)-1-methyl-1H-pyrazolo[3,4-d]pyrimidin-6-yl)piperidin-4-y1)-N-methylacetamide]
100 to 1000 nM | CNC1CCN(c2ncc3c(-c4cc(C(F)(F)F)c(F)c(O)c4F)nn(C)c3n2)CC1 [Compound 18.29, 2,6-Difluoro-3-(1-methyl-6-(4-(methylamino)piperidin-1-yl)-1H-pyrazolo[3,4-d]pyrimidin-3-y1)-5-(trifluoromethyl)phenol]
100 to 1000 nM | Cn1nc(-c2cc(C(F)(F)F)c(F)c(O)c2F)c2cnc(N3CCC(C(=O)O)CC3)nc21 [Compound 18.30, 1-(3-(2,4-Difluoro-3-hydroxy-5-(trifluoromethyl)phenyl)-1-methyl-1H-pyrazolo[3,4-d]pyrimidin-6-y1)piperidine-4-carboxylic Acid]
100 to 1000 nM | CN(C)C1CCN(c2ncc3c(-c4cc(C(F)(F)F)c(F)c(O)c4F)nn(C)c3n2)CC1 [Compound 18.31, 3-(6-(4-(Dimethylamino)piperidin-1-y1)-1-methyl-1H-pyrazolo[3,4-d]pyrimidin-3-y1)-2,6-difluoro-5-(trifluoromethyl)phenol]
< 100 nM | Cn1nc(-c2cc(C(F)(F)F)c(F)c(O)c2F)c2cnc(N3CCOC(c4ccccc4)C3)nc21 (centres unmarked) [Compound 18.32, 2,6-Difluoro-3-(1-methyl-6-(2-phenylmorpholino)-1H-pyrazolo[3,4-d]pyrimidin-3-y1)-5-(trifluoromethyl)phenol]
100 to 1000 nM | CN(C)CC1CN(c2ncc3c(-c4cc(C(F)(F)F)c(F)c(O)c4F)nn(C)c3n2)CCO1 (centres unmarked) [Compound 18.33, 3-(6-(2-((Dimethylamino)methyl)morpholino)-1-methyl-1H-pyrazolo[3,4-d]pyrimidin-3-y1)-2,6-difluoro-5-(trifluoromethyl)phenol]
100 to 1000 nM | CN(C)CC1CCN(c2ncc3c(-c4cc(C(F)(F)F)c(F)c(O)c4F)nn(C)c3n2)CC1 [Compound 18.34, 3-(6-(4-((Dimethylamino)methyl)piperidin-1-y1)-1-methyl-1H-pyrazolo[3,4-d]pyrimidin-3-y1)-2,6-difluoro-5-(trifluoromethyl)phenol]
< 100 nM | Cn1nc(-c2cc(C(F)(F)F)c(F)c(O)c2F)c2cnc(N3CCCCC3)nc21 [Compound 18.35, 2,6-Difluoro-3-(1-methyl-6-(piperidin-1-yl)-1H-pyrazolo[3,4-d]pyrimidin-3-y1)-5-(trifluoromethyl)phenol]
< 100 nM | Cn1nc(-c2cc(C(F)(F)F)c(F)c(O)c2F)c2cnc(N3CCC4(CCOCC4)CC3)nc21 [Compound 18.36, 2,6-Difluoro-3-(1-methyl-6-(3-oxa-9-azaspiro[5.5]undecan-9-yl)-1H-pyrazolo[3,4-d]pyrimidin-3-y1)-5-(trifluoromethyl)phenol]
< 100 nM | Cn1nc(-c2cc(C(F)(F)F)c(F)c(O)c2F)c2cnc(N3CCC4(CCOC4)CC3)nc21 [Compound 18.37, 2,6-Difluoro-3-(1-methyl-6-(2-oxa-8-azaspiro[4.5]decan-8-yl)-1H-pyrazolo[3,4-d]pyrimidin-3-y1)-5-(trifluoromethyl)phenol]
1000 to 30000 nM | Cn1nc(-c2cc(C(F)(F)F)c(F)c(O)c2F)c2cnc(N3CCOCC3C(=O)O)nc21 (centres unmarked) [Compound 18.38, 4-(3-(2,4-Difluoro-3-hydroxy-5-(trifluoromethyl)phenyl)-1-methyl-1H-pyrazolo[3,4-d]pyrimidin-6-yl)morpholine-3-carboxylic Acid]
100 to 1000 nM | CN(C)CCC1CN(c2ncc3c(-c4cc(C(F)(F)F)c(F)c(O)c4F)nn(C)c3n2)CCO1 (centres unmarked) [Compound 18.39, 3-(6-(2-(2-(Dimethylamino)ethyl)morpholino)-1-methyl-1H-pyrazolo[3,4-d]pyrimidin-3-y1)-2,6-difluoro-5-(trifluoromethyl)phenol]
100 to 1000 nM | Cn1nc(-c2cc(C(F)(F)F)c(F)c(O)c2F)c2cnc(N3CCOCC3CC(=O)O)nc21 (centres unmarked) [Compound 18.40, 2-(4-(3-(2,4-Difluoro-3-hydroxy-5-(trifluoromethyl)phenyl)-1-methyl-1H-pyrazolo[3,4-d]pyrimidin-6-yl)morpholin-3-yl)acetic Acid]
100 to 1000 nM | CN1CCC2(CC1)CN(c1ncc3c(-c4cc(C(F)(F)F)c(F)c(O)c4F)nn(C)c3n1)CCO2 [Compound 18.41, 2,6-Difluoro-3-(1-methyl-6-(9-methyl-1-oxa-4,9-diazaspiro[5.5]undecan-4-y1)-1H-pyrazolo[3,4-d]pyrimidin-3-y1)-5-(trifluoromethyl)phenol]
< 100 nM | Cn1nc(-c2cc(C(F)(F)F)c(F)c(O)c2F)c2cnc(N3CCOCC3C3CCOCC3)nc21 (centres unmarked) [Compound 18.42, 2,6-Difluoro-3-(1-methyl-6-(3-(tetrahydro-2H-pyran-4-yl)morpholino)-1H-pyrazolo[3,4-d]pyrimidin-3-y1)-5-(trifluoromethyl)phenol]
1000 to 30000 nM | Cn1nc(-c2cc(C(F)(F)F)c(F)c(O)c2F)c2cnc(N3CCOC(C(=O)O)C3)nc21 (centres unmarked) [Compound 18.43, 4-(3-(2,4-Difluoro-3-hydroxy-5-(trifluoromethyl)phenyl)-1-methyl-1H-pyrazolo[3,4-d]pyrimidin-6-yl)morpholine-2-carboxylic Acid]
< 100 nM | Cn1nc(-c2cc(C(F)(F)F)c(F)c(O)c2F)c2cnc(N3CCC(c4ccccc4)CC3)nc21 [Compound 18.44, 2,6-Difluoro-3-(1-methyl-6-(4-phenylpiperidin-1-y1)-1H-pyrazolo[3,4-d]pyrimidin-3-y1)-5-(trifluoromethyl)phenol]
100 to 1000 nM | CN(C)C1CCCN(c2ncc3c(-c4cc(C(F)(F)F)c(F)c(O)c4F)nn(C)c3n2)C1 (centres unmarked) [Compound 18.45, 3-(6-(3-(Dimethylamino)piperidin-1-y1)-1-methyl-1H-pyrazolo[3,4-d]pyrimidin-3-y1)-2,6-difluoro-5-(trifluoromethyl)phenol]
< 100 nM | Cn1nc(-c2cc(C(F)(F)F)c(F)c(O)c2F)c2cnc(N3CCOCC3c3ccccc3)nc21 (centres unmarked) [Compound 18.46, 2,6-Difluoro-3-(1-methyl-6-(3-phenylmorpholino)-1H-pyrazolo[3,4-d]pyrimidin-3-y1)-5-(trifluoromethyl)phenol]
< 100 nM | CN1CCC2(CC1)CCN(c1ncc3c(-c4cc(C(F)(F)F)c(F)c(O)c4F)nn(C)c3n1)CC2 [Compound 18.47, 2,6-Difluoro-3-(1-methyl-6-(9-methyl-3,9-diazaspiro[5.5]undecan-3-y1)-1H-pyrazolo[3,4-d]pyrimidin-3-y1)-5-(trifluoromethyl)phenol]
< 100 nM | Cn1nc(-c2cc(C(F)(F)F)c(F)c(O)c2F)c2cnc(N3CCOC(c4ccccn4)C3)nc21 (centres unmarked) [Compound 18.48, 2,6-Difluoro-3-(1-methyl-6-(2-(pyridin-2-yl)morpholino)-1H-pyrazolo[3,4-d]pyrimidin-3-y1)-5-(trifluoromethyl)phenol]
< 100 nM | Cn1nc(-c2cc(C(F)(F)F)c(F)c(O)c2F)c2cnc(N3CCOC(C4CCOCC4)C3)nc21 (centres unmarked) [Compound 18.49, 2,6-Difluoro-3-(1-methyl-6-(2-(tetrahydro-2H-pyran-4-yl)morpholino)-1H-pyrazolo[3,4-d]pyrimidin-3-y1)-5-(trifluoromethyl)phenol]
1000 to 30000 nM | Cn1nc(-c2cc(C(F)(F)F)c(F)c(O)c2F)c2cnc(N3CCOC(c4nnn[nH]4)C3)nc21 (centres unmarked) [Compound 18.50, 3-(6-(2-(1H-Tetrazol-5-yl)morpholino)-1-methyl-1H-pyrazolo[3,4-d]pyrimidin-3-y1)-2,6-difluoro-5-(trifluoromethyl)phenol]
< 100 nM | Cn1nccc1C1CN(c2ncc3c(-c4cc(C(F)(F)F)c(F)c(O)c4F)nn(C)c3n2)CCO1 (centres unmarked) [Compound 18.51, 2,6-Difluoro-3-(1-methyl-6-(2-(1-methyl-1H-pyrazol-5-yl)morpholino)-1H-pyrazolo[3,4-d]pyrimidin-3-y1)-5-(trifluoromethyl)phenol]
